Experimental findings from patent publication US12486302B2, “Somatostatin receptor antagonist compounds and methods of using the same” (CDRD VENTURES INC., priority 2016, dated 2025) are described below.

*1 amine or outer side, *2 acyl side, *3 side chain or, on linkers, in order; H or OH if unused. Where a SMILES comes first, the peptide text is derived from it. Bridges are numbered along the chain shown (N, C = ends). Side-chain parts run from the residue outwards. [ ]: non-standard residue; d: D form. The star is where a group is joined. X3 = O=C([C@@H](Cc1ccc(NCCN2CCOCC2)cc1)N[*:1])[*:2]; dPhe(4-CH2NH2) = NCc1ccc(C[C@@H](N)C(=O)O)cc1; dPhe(4-NH2) = Nc1ccc(C[C@@H](N)C(=O)O)cc1; Phe(4-Cl) = N[C@@H](Cc1ccc(Cl)cc1)C(=O)O; Ethyl(2-morpholino) = C1CN(CC*)CCO1; dCit = NC(=O)NCCC[C@@H](N)C(=O)O; Cit = NC(=O)NCCC[C@H](N)C(=O)O

What all share (format): cell-based
Holding throughout (details): agonist challenge at EC80

The target of one experiment is SSTR5 (Homo sapiens, UniProt P35346). The experiment in a line: PathHunter β-Arrestin assay, antagonist mode, SSTR5. The method, then: (§1) The PathHunter® β-Arrestin assay monitors the activation of a GPCR in a homogenous, non-imaging assay format using a technology developed by DiscoveRx called Enzyme Fragment Complementation (EFC) with β-galactosidase (β-Gal) as the functional reporter. […] EA is fused to β-Arrestin and […] is fused to the GPCR of interest. When the GPCR is activated and β-Arrestin is recruited to the receptor, ED and EA complementation occurs, restoring β-Gal activity which is measured using chemiluminescent PathHunter® Detection Reagents. For antagonist determination, cells were pre-incubated with the compounds followed by agonist challenge at the EC80 concentration. Data was normalized to the maximal and minimal response observed in the presence of EC80 ligand and vehicle. Compound activity was analyzed using CBIS data analysis suite ChemInnovation, CA). Percentage inhibition was calculated using the following formula: % Inhibition=100%×(1−(mean signal of test sample-mean signal of vehicle control)/(mean signal of EC80 control-mean signal of vehicle control)). Percentage inhibition was calculated at 10 concentrations in steps on a Log 3 scale ranging from […] to 5e-5 μM. The results were plotted for IC50 calculation.
Sequence of SSTR5 (P35346 whole entry, the tested form may be a part): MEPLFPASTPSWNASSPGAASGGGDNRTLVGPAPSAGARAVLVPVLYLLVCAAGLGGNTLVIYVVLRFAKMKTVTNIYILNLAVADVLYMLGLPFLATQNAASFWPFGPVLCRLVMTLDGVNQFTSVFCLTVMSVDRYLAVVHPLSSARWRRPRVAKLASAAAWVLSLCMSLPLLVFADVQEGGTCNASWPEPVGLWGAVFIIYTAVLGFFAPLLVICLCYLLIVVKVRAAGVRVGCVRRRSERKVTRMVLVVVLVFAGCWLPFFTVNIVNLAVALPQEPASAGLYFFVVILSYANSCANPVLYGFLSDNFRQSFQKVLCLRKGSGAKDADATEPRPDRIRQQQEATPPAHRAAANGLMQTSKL

Experiment [1] has as its target somatostatin type 2 (SSTR2) receptors (Homo sapiens, UniProt P30874). Nature of the experiment: PathHunter β-Arrestin assay, antagonist mode, SSTR2. An outline of the steps: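 Cells co-expressing PK-tagged human receptor and EA-β-Arrestin were pre-incubated with compound, then challenged with agonist at EC80. β-Gal complementation read by chemiluminescence; % inhibition normalized to EC80 and vehicle controls at 10 concentrations (log 3 steps from 1 μM down to 5e-5 μM), fitted for IC50.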

The target in a further experiment is SSTR3 (Homo sapiens, UniProt P32745). Nature of the experiment: PathHunter β-Arrestin assay, antagonist mode, SSTR3. The method, then:
as §1

A further experiment addresses SSTR1 (Homo sapiens, UniProt P30872). The experiment in a line: PathHunter β-Arrestin assay, antagonist mode, SSTR1. The method, then: as §1
A further experiment deals with SSTR4 (Homo sapiens, UniProt P31391). The experiment in a line: PathHunter β-Arrestin assay, antagonist mode, SSTR4. As to the method:
as §1

Sequence of SSTR3 (P32745 whole entry): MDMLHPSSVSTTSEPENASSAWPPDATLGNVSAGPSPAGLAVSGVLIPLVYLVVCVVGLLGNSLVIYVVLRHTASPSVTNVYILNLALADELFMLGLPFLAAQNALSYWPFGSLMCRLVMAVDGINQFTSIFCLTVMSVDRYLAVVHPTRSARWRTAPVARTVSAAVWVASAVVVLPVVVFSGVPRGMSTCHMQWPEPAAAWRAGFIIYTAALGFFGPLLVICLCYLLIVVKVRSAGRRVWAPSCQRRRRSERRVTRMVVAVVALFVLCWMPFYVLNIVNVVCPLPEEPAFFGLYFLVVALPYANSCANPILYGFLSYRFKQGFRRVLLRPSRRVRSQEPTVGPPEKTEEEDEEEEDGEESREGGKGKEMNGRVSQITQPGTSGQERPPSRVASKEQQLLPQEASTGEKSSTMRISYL
Sequence of somatostatin type 2 (SSTR2) receptors (P30874 whole entry): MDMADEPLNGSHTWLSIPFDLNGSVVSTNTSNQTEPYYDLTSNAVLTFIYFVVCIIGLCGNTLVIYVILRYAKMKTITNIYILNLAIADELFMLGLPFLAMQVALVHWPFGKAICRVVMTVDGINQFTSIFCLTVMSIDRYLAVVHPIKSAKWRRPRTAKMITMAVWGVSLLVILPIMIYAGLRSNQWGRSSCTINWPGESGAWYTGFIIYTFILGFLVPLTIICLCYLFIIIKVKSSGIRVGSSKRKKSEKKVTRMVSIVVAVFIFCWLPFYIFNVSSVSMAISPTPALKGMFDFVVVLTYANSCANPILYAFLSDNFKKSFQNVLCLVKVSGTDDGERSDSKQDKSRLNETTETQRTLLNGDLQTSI
Sequence of SSTR1 (P30872 whole entry): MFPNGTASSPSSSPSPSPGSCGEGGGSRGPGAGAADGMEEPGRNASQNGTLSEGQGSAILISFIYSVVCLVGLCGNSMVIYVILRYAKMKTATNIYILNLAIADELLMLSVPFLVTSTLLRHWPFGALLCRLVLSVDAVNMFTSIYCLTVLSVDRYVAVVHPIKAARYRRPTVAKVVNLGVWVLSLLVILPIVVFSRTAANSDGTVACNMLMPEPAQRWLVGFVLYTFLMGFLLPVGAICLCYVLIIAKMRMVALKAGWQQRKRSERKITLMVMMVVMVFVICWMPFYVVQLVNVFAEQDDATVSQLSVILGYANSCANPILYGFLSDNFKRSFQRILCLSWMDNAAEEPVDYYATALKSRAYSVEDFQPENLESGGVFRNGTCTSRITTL
Sequence of SSTR4 (P31391 whole entry): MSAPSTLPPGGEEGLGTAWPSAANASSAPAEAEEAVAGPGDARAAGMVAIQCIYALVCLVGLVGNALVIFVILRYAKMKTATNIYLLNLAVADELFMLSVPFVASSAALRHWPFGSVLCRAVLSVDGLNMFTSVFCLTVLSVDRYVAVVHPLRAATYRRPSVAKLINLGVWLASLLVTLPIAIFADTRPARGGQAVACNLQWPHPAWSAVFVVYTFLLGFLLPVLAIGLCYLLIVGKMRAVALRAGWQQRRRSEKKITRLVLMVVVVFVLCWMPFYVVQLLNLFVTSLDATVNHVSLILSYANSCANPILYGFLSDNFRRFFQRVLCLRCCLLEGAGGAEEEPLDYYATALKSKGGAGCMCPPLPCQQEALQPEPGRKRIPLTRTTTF

For the molecule `C[C@@H](O)[C@@H]1NC(=O)[C@H](CCCCN)NC(=O)[C@@H](CCCNC(N)=O)NC(=O)[C@H](Cc2ccc(O)cc2)NC(=O)[C@H](NC(=O)[C@@H](N)Cc2ccc(Cl)cc2)CSSC[C@@H](C(=O)N[C@H](Cc2ccc(O)cc2)C(N)=O)NC1=O` [Compound 1, H-Cpa-cyclo[D-Cys-Tyr-D-Cit-Lys-Thr-Cys]-D-Tyr-NH2] (H-[Phe(4-Cl)][dC]Y[dCit]KTC[dY]-NH2; disulfide 2-7), the IC50 on SSTR5 was greater than 1000 nM; in experiment [1] it was 34 nM; on SSTR3 it was greater than 1000 nM; on SSTR1, greater than 1000 nM; at SSTR4 it was greater than 1000 nM.

`CC(=O)NCc1ccc(C[C@H]2NC(=O)[C@H](Cc3ccc(O)cc3)NC(=O)[C@H](NC(=O)[C@@H](N)Cc3ccc(Cl)cc3)CSSC[C@@H](C(=O)N[C@H](Cc3ccc(O)cc3)C(N)=O)NC(=O)[C@H]([C@@H](C)O)NC(=O)[C@H](CCCCN)NC2=O)cc1` [Compound 6, H-Cpa-cyclo[DCys- Tyr-D-(4- acetamido- methyl)Phe- Lys-Thr-Cys]-DTyr- NH2] (H-[Phe(4-Cl)][dC]Y[dPhe(4-CH2NH2)](Ac)KTC[dY]-NH2; disulfide 2-7): the IC50 in experiment [1] was 166 nM; on SSTR3, greater than 1000 nM.

As to `C[C@@H](O)[C@@H]1NC(=O)[C@H](CCCCN)NC(=O)[C@@H](Cc2ccc(NC(=O)CN)cc2)NC(=O)[C@H](Cc2ccc(O)cc2)NC(=O)[C@H](NC(=O)[C@@H](N)Cc2ccc(Cl)cc2)CSSC[C@@H](C(=O)N[C@H](Cc2ccc(O)cc2)C(N)=O)NC1=O` [Compound 8, H-Cpa-cyclo[DCys- Tyr-D-4-(Gly) Aph-Lys- Thr-Cys]-DTyr-NH2] (H-[Phe(4-Cl)][dC]Y[dPhe(4-NH2)](Gly)KTC[dY]-NH2; disulfide 2-7), the IC50 is 84 nM in experiment [1] and greater than 1000 nM at SSTR3.

On to `CC(=O)NCC(=O)Nc1ccc(C[C@H]2NC(=O)[C@H](Cc3ccc(O)cc3)NC(=O)[C@H](NC(=O)[C@@H](N)Cc3ccc(Cl)cc3)CSSC[C@@H](C(=O)N[C@H](Cc3ccc(O)cc3)C(N)=O)NC(=O)[C@H]([C@@H](C)O)NC(=O)[C@H](CCCCN)NC2=O)cc1` [Compound 9, H-Cpa-cyclo[DCys- Tyr-D-4-(Gly- Ac)Aph- Lys-Thr-Cys]- DTyr-NH2] (H-[Phe(4-Cl)][dC]Y[dPhe(4-NH2)]([Gly-Ac])KTC[dY]-NH2; disulfide 2-7), for which the IC50 in experiment [1] is 104 nM; on SSTR3, greater than 1000 nM.

As to `C[C@@H](O)[C@@H]1NC(=O)[C@H](CCCCN)NC(=O)[C@@H](Cc2ccc(NC(=O)[C@@H]3CCCN3)cc2)NC(=O)[C@H](Cc2ccc(O)cc2)NC(=O)[C@H](NC(=O)[C@@H](N)Cc2ccc(Cl)cc2)CSSC[C@@H](C(=O)N[C@H](Cc2ccc(O)cc2)C(N)=O)NC1=O` [Compound 10, H-Cpa-cyclo[DCys- Tyr-D-4-(Pro) Aph-Lys- Thr-Cys]- DTyr-NH2] (H-[Phe(4-Cl)][dC]Y[dPhe(4-NH2)](Pro)KTC[dY]-NH2; disulfide 2-7), the IC50 (in experiment [1]; on SSTR3) was greater than 1000 nM throughout.

As to `C[C@@H](O)[C@@H]1NC(=O)[C@H](CCCCN)NC(=O)[C@@H](Cc2ccc(NCCN3CCOCC3)cc2)NC(=O)[C@H](Cc2ccc(O)cc2)NC(=O)[C@H](NC(=O)[C@@H](N)Cc2ccc(Cl)cc2)CSSC[C@@H](C(=O)N[C@H](Cc2ccc(O)cc2)C(N)=O)NC1=O` [Compound 11, H-Cpa-cyclo [DCys-Tyr- D-4-(2-(4- morpholinyl) ethyl)Aph- Lys-Thr-Cys]- DTyr-NH2] (H-[Phe(4-Cl)][dC]Y[X3]KTC[dY]-NH2; disulfide 2-7), the half-maximal inhibitory concentration (IC50) in experiment [1] is 243 nM; at SSTR3, greater than 1000 nM.

`C[C@@H](O)[C@@H]1NC(=O)[C@H](CCCCN)NC(=O)[C@@H](Cc2ccc(OCCN3CCOCC3)cc2)NC(=O)[C@H](Cc2ccc(O)cc2)NC(=O)[C@H](NC(=O)[C@@H](N)Cc2ccc(Cl)cc2)CSSC[C@@H](C(=O)N[C@H](Cc2ccc(O)cc2)C(N)=O)NC1=O` [Compound 13, H-Cpa-cyclo[DCys- Tyr-D-(2-(4- morpholinyl)ethyl) Tyr-Lys-Thr- Cys]-DTyr-NH2] (H-[Phe(4-Cl)][dC]Y[dY](Ethyl(2-morpholino))KTC[dY]-NH2; disulfide 2-7): the concentration for half-maximal inhibition (IC50) in experiment [1] was 334 nM; on SSTR3 it was greater than 1000 nM.

Consider `C[C@@H](O)[C@@H]1NC(=O)[C@H](CCCCN)NC(=O)[C@@H](Cc2ccc(NC(=O)[C@@H](N)CO)cc2)NC(=O)[C@H](Cc2ccc(O)cc2)NC(=O)[C@H](NC(=O)[C@@H](N)Cc2ccc(Cl)cc2)CSSC[C@@H](C(=O)N[C@H](Cc2ccc(O)cc2)C(N)=O)NC1=O` [Compound 16, H-Cpa-cyclo[DCys- Tyr-D-4-(Ser) Aph-Lys-Thr- Cys]-DTyr-NH2] (H-[Phe(4-Cl)][dC]Y[dPhe(4-NH2)](Ser)KTC[dY]-NH2; disulfide 2-7), for which the IC50 in experiment [1] was 234 nM; at SSTR3, greater than 1000 nM.

On to `C[C@@H](O)[C@@H]1NC(=O)[C@H](CCCCN)NC(=O)[C@@H](Cc2ccc(NC(=O)[C@@H](N)CCCCN)cc2)NC(=O)[C@H](Cc2ccc(O)cc2)NC(=O)[C@H](NC(=O)[C@@H](N)Cc2ccc(Cl)cc2)CSSC[C@@H](C(=O)N[C@H](Cc2ccc(O)cc2)C(N)=O)NC1=O` [Compound 17, H-Cpa-cyclo[DCys- Tyr-D-4-(Lys) Aph-Lys-Thr- Cys]-DTyr-NH2] (H-[Phe(4-Cl)][dC]Y[dPhe(4-NH2)](Lys)KTC[dY]-NH2; disulfide 2-7), for which the IC50 (in experiment [1]; at SSTR3) was greater than 1000 nM each time.

Regarding `C[C@@H](O)[C@@H]1NC(=O)[C@H](CCCCN)NC(=O)[C@@H](Cc2ccc(NC(=O)[C@@H](N)CC(=O)O)cc2)NC(=O)[C@H](Cc2ccc(O)cc2)NC(=O)[C@H](NC(=O)[C@@H](N)Cc2ccc(Cl)cc2)CSSC[C@@H](C(=O)N[C@H](Cc2ccc(O)cc2)C(N)=O)NC1=O` [Compound 18, H-Cpa-cyclo[DCys- Tyr-D-4-(Asp) Aph-Lys-Thr- Cys]-DTyr-NH2] (H-[Phe(4-Cl)][dC]Y[dPhe(4-NH2)](Asp)KTC[dY]-NH2; disulfide 2-7), the IC50 (in experiment [1]; on SSTR3) was greater than 1000 nM throughout.

As for `C[C@@H](O)[C@@H]1NC(=O)[C@H](CCCCN)NC(=O)[C@@H](Cc2ccc(NC(=O)[C@@H](N)CC(N)=O)cc2)NC(=O)[C@H](Cc2ccc(O)cc2)NC(=O)[C@H](NC(=O)[C@@H](N)Cc2ccc(Cl)cc2)CSSC[C@@H](C(=O)N[C@H](Cc2ccc(O)cc2)C(N)=O)NC1=O` [Compound 19, H-Cpa-cyclo[DCys- Tyr-D-4-(Asn) Aph-Lys-Thr- Cys]-DTyr-NH2] (H-[Phe(4-Cl)][dC]Y[dPhe(4-NH2)](Asn)KTC[dY]-NH2; disulfide 2-7), the IC50 (in experiment [1]; on SSTR3) was greater than 1000 nM throughout.

`C[C@@H](O)[C@@H]1NC(=O)[C@H](CCCCN)NC(=O)[C@@H](Cc2ccc(NC(=O)[C@@H](N)CCC(=O)O)cc2)NC(=O)[C@H](Cc2ccc(O)cc2)NC(=O)[C@H](NC(=O)[C@@H](N)Cc2ccc(Cl)cc2)CSSC[C@@H](C(=O)N[C@H](Cc2ccc(O)cc2)C(N)=O)NC1=O` [Compound 20, H-Cpa-cyclo[DCys- Tyr-D-4-(Glu)Aph- Lys-Thr-Cys]- DTyr-NH2] (H-[Phe(4-Cl)][dC]Y[dPhe(4-NH2)](Glu)KTC[dY]-NH2; disulfide 2-7): the IC50 is 924 nM in experiment [1] and greater than 1000 nM at SSTR3.

`C[C@@H](O)[C@@H]1NC(=O)[C@H](CCCCN)NC(=O)[C@@H](Cc2ccc(NC(=O)[C@@H](N)CCC(N)=O)cc2)NC(=O)[C@H](Cc2ccc(O)cc2)NC(=O)[C@H](NC(=O)[C@@H](N)Cc2ccc(Cl)cc2)CSSC[C@@H](C(=O)N[C@H](Cc2ccc(O)cc2)C(N)=O)NC1=O` [Compound 21, H-Cpa-cyclo[DCys- Tyr-D-4-(Gln)Aph- Lys-Thr-Cys]- DTyr-NH2] (H-[Phe(4-Cl)][dC]Y[dPhe(4-NH2)](Gln)KTC[dY]-NH2; disulfide 2-7): the IC50 (in experiment [1]; on SSTR3) was greater than 1000 nM throughout.

Consider `C[C@@H](O)[C@@H]1NC(=O)[C@H](CCCCN)NC(=O)[C@@H](Cc2ccc(NC(=O)[C@@H](N)CCCNC(N)=O)cc2)NC(=O)[C@H](Cc2ccc(O)cc2)NC(=O)[C@H](NC(=O)[C@@H](N)Cc2ccc(Cl)cc2)CSSC[C@@H](C(=O)N[C@H](Cc2ccc(O)cc2)C(N)=O)NC1=O` [Compound 22, H-Cpa-cyclo[DCys- Tyr-D-4-(Cit)Aph- Lys-Thr-Cys]- DTyr-NH2] (H-[Phe(4-Cl)][dC]Y[dPhe(4-NH2)](Cit)KTC[dY]-NH2; disulfide 2-7), for which the results for the half-inhibitory concentration (IC50) (in experiment [1]; on SSTR3) were 417 nM and greater than 1000 nM, respectively.

As for `CC(C)[C@H](N)C(=O)Nc1ccc(C[C@H]2NC(=O)[C@H](Cc3ccc(O)cc3)NC(=O)[C@H](NC(=O)[C@@H](N)Cc3ccc(Cl)cc3)CSSC[C@@H](C(=O)N[C@H](Cc3ccc(O)cc3)C(N)=O)NC(=O)[C@H]([C@@H](C)O)NC(=O)[C@H](CCCCN)NC2=O)cc1` [Compound 23, H-Cpa-cyclo[DCys- Tyr-D-4-(Val)Aph- Lys-Thr-Cys]- DTyr-NH2] (H-[Phe(4-Cl)][dC]Y[dPhe(4-NH2)](Val)KTC[dY]-NH2; disulfide 2-7), the IC50 was 458 nM in experiment [1] and greater than 1000 nM at SSTR3.

For orientation: IC50 means the midpoint of a concentration-inhibition curve. Low values mean inhibition by little substance, high ones a need for much substance.
